Test results published in the supplement of paper PMC10307832.

Legend:
Experiment in all cases: relative viability (nuclei count vs DMSO), 5 days (fraction); higher = more cells survive
ABC-1 = system: ABC-1
Summary of the method: (§1)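 Medians of duplicate plates are given as relative viability. That measure is the nuclei count in treated wells divided by the count in vehicle wells. Counts were taken on 4× images of lung cancer cell lines in 1536-well plates, 5 days after pin-tool dosing the day after seeding with one drug alone or a fixed anchor-drug dose plus five library-drug doses (not always all listed) in √10 steps.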

NCI-H2126 = system: NCI-H2126
Summary of the method: as §1

Calu-6 = system: Calu-6
Summary of the method: as §1

NCI-H1703 = system: NCI-H1703
Summary of the method: as §1

A549 = system: A549
Summary of the method: as §1

NCI-H1299 = system: NCI-H1299
Summary of the method: as §1

EKVX = system: EKVX
Summary of the method: as §1

IA-LM = system: IA-LM
Summary of the method: as §1

EBC-1 = system: EBC-1
Summary of the method: as §1

CC1(C)CCC(c2ccc(Cl)cc2)=C(CN2CCN(c3ccc(C(=O)NS(=O)(=O)c4ccc(N[C@H](CCN5CCOCC5)CSc5ccccc5)c(S(=O)(=O)C(F)(F)F)c4)cc3)CC2)C1 [Navitoclax] + CS(=O)(=O)N1CCN(Cc2cc3nc(-c4cccc5[nH]ncc45)nc(N4CCOCC4)c3s2)CC1 [Pictilisib] (partner 1 µM)
relative viability (ABC-1; first compound 0.005 µM): 0.795
relative viability (ABC-1; first compound 0.01581 µM): 1
relative viability (ABC-1; first compound 0.05 µM): 0.686
relative viability (ABC-1; first compound 0.1581 µM): 0.64
relative viability (ABC-1; first compound 0.5 µM): 0.616
relative viability (NCI-H2126; first compound 0.005 µM): 0.529
relative viability (NCI-H2126; first compound 0.01581 µM): 0.507
relative viability (NCI-H2126; first compound 0.05 µM): 0.493
relative viability (NCI-H2126; first compound 0.1581 µM): 0.49
relative viability (NCI-H2126; first compound 0.5 µM): 0.451
relative viability (Calu-6; first compound 0.005 µM): 0.891
relative viability (Calu-6; first compound 0.01581 µM): 1.03
relative viability (Calu-6; first compound 0.05 µM): 1.01
relative viability (Calu-6; first compound 0.1581 µM): 0.775
relative viability (Calu-6; first compound 0.5 µM): 0.752
relative viability (NCI-H1703; first compound 0.005 µM): 0.244
relative viability (NCI-H1703; first compound 0.01581 µM): 0.28
relative viability (NCI-H1703; first compound 0.05 µM): 0.263
relative viability (NCI-H1703; first compound 0.1581 µM): 0.239
relative viability (NCI-H1703; first compound 0.5 µM): 0.245
relative viability (A549; first compound 0.005 µM): 0.418
relative viability (A549; first compound 0.01581 µM): 0.425
relative viability (A549; first compound 0.05 µM): 0.685
relative viability (A549; first compound 0.1581 µM): 0.51
relative viability (A549; first compound 0.5 µM): 0.504
relative viability (NCI-H1299; first compound 0.005 µM): 0.717
relative viability (NCI-H1299; first compound 0.01581 µM): 0.943
relative viability (NCI-H1299; first compound 0.05 µM): 0.874
relative viability (NCI-H1299; first compound 0.1581 µM): 0.822
relative viability (NCI-H1299; first compound 0.5 µM): 0.819
relative viability (EKVX; first compound 0.005 µM): 0.487
relative viability (EKVX; first compound 0.01581 µM): 0.611
relative viability (EKVX; first compound 0.05 µM): 0.427
relative viability (EKVX; first compound 0.1581 µM): 0.41
relative viability (EKVX; first compound 0.5 µM): 0.452
relative viability (IA-LM; first compound 0.005 µM): 0.466
relative viability (IA-LM; first compound 0.01581 µM): 0.321
relative viability (IA-LM; first compound 0.05 µM): 0.404
relative viability (IA-LM; first compound 0.1581 µM): 0.457
relative viability (IA-LM; first compound 0.5 µM): 0.292
relative viability (EBC-1; first compound 0.005 µM): 0.411
relative viability (EBC-1; first compound 0.01581 µM): 0.378
relative viability (EBC-1; first compound 0.05 µM): 0.448
relative viability (EBC-1; first compound 0.1581 µM): 0.575
relative viability (EBC-1; first compound 0.5 µM): 0.138
